In paper PMC6770581, “New Thalidomide-Resembling Dicarboximides Target ABC50 Protein and Show Antileukemic and Immunomodulatory Activities” (Biomolecules, 2019):

Legend:
Assay type in all cases: cell-based, human
caspase 3 and PARP = experiment: Western blot of caspase 3 and PARP cleavage in K562 cells; conditions: 24 h
Description: 0.15 × 10^6 cells/ml were seeded on a 6-well plate (Nunclon, Thermo Fisher Scientific, Waltham, MA, USA). Following 24 hour preincubation the cells were treated with either the compound or 1% DMSO (control) for 24 or 48 hours. Cells were lysed using RIPA Buffer (Sigma) supplemented with Complete Protease Inhibitor Coctail (Roche, Basel, Switzerland) and PhosSTOP (Roche). Samples containing 20 µg protein were resuspended in 4× Laemmli’s Buffer (Biorad, Hercules, CA, USA), separated on 10% acrylamide gel (TGX Stain-Free Gel Kit, Biorad) and blotted onto nitrocellulose membrane (Panreac Applichem ITW, Darmstadt, Germany). Blots were blocked in 5% non-fat dry milk in TBST (1% (v/v) Tween-20, 140 mM NaCl, 25 mM Trizma, pH = 7.4 adjusted with HCl) for 1 h and incubated overnight with the antibodies against caspase-9 (9502), caspase-8 (9746), caspase-3 (9662), caspase-3 cleaved (9661) and β-actin (3700), all from Cell Signaling Technology, and antibody against poly(ADP-ribose)polymerase (PARP, 551025) from BD Pharmingen. Membranes were incubated with appropriate species-specific secondary antibodies conjugated with HRP (Cell Signaling Technology, Danvers, MA, USA). Blots were developed using ECL substrate (Biorad, Hercules, CA, USA). The experiment was performed in at least three independent biological replicates.

caspases 8/9 = experiment: Caspase-Glo 8 and 9 luminescent activity assay in MOLT-4 cells; conditions: MOLT-4, 5× IC50, 3 h, control 1% DMSO = 1.0
Description: Louis, MO). The induction of cell apoptosis was analyzed by Apo-ONE® Homogeneous Caspase-3/7 Assay (Promega, Madison, WI, USA). […] The fluorescence in each well was measured in triplicate (excitation at 485 nm, emission measured at 520 nm) using a microplate reader FLUOStar Omega (BMG-Labtech, Offenburg, Germany). For normalization of the data, the caspase activity in the control cells (exposed to 1% DMSO) was taken as 1.0. […] Luminescence was measured (in triplicate) using a microplate reader FLUOStar Omega. For normalization of the data, the caspase activity in the control cells (exposed to 1% DMSO) was taken as 1.0.

[1] = tested on: BAX, PMAIP1, HTRA2, TNFRSF 10B, ESRRBL1 mRNA; experiment: Real-time RT-qPCR of apoptosis-related mRNAs in K562 cells; conditions: K562, 18 h, 3 10 µM, 6 5 µM (5× IC50), relative to 1% DMSO, normalized to GAPDH
Description: The total RNA pool was isolated from the cells lysates using TriPure Isolation Reagent (Roche, Basel, Switzerland) according to the manufacturer's instruction. Purity and integrity of RNA was checked spectrophotometrically with a NanoDrop ND-1000 spectrophotometer (Thermo Fisher Scientific, Waltham, MA, USA) and Agilent 2100 Bioanalyzer instrument. […] Reverse transcription and polymerase chain reaction (RT-PCR) amplification reactions were performed in one step using a LightCycler® 1.0 Instrument (Roche) and LightCycler RNA Amplification Kit SYBR Green I (Roche). […] The qRT-PCR reactions were optimized for each studied gene and performed according to a general protocol: a reverse transcription reaction (RT) for 10 min. at 55 °C, and a denaturation step for 30 s at 95 °C. The three steps of PCR quantification reaction included: I-denaturation (0 s at 95 °C), II-annealing (10 s at 60 °C), III-product extension (8 s at 72 °C), 45 cycles in total. Subsequent melting experiments were performed by quick denaturation at 95 °C, annealing over 10 s at 65 °C and heating up to 95 °C at 0.1 °C/s. The BAX, PMAIP1, HTRA2, TNFRSF 10B, and ESRRBL1 mRNA levels were normalized against a reference GAPDH mRNA. […]

| SMILES | caspase 3 and PARP cleavage (Western blot) (caspase 3 and PARP) | activation of caspases 8/9 compared to the control (caspases 8/9) | expression of mRNAs of receptor (TNFRSF 10B, ESRRBL1) and mitochondrial (BAX, PMAIP1, HTRA2) apoptotic pathways [1] |
| --- | --- | --- | --- |
| CCC12C(=O)C(CC)(C(c3ccccc3)=C1c1ccccc1)C1C(=O)N(CC(O)CNC(C)C)C(=O)C12 (centres unmarked) [Compound 5] | presence of cleavage fragments of PARP (85 kDa) and caspase 3 (17 kDa) | – | – |
| CCC12C(=O)C(CC)(C(c3ccccc3)=C1c1ccccc1)C1C(=O)N(CCN3CCCCC3)C(=O)C12 (centres unmarked) [Compound 3] | – | more than 10 fold | significantly induced |
| CN(C)CCN1C(=O)C2C(C1=O)C1(c3ccccc3)CC2(c2ccccc2)C(c2ccccc2)=C1c1ccccc1 (centres unmarked) [Compound 6] | – | more than 10 fold | significantly induced |
